Assay results taken from patent publication US4757061A, “4-amino androstendione derivatives and process for their preparation” (Farmitalia Carlo Erba, S.p.A., priority 1985, dated 1988).
pIC50: −log10 of the molar value.

What was measured:
[1] = biological target: T1, human placental aromatase (Homo sapiens, UniProt P11511); assay: Aromatase inhibition in vitro (human placental aromatase, 3H2O release assay); type: biochemical
T1 construct: The enzyme system was isolated from the microsomal fraction of human placental tissue; from tissue; host or cells: human placental tissue, microsomal fraction
T1 sequence (P11511 1-503): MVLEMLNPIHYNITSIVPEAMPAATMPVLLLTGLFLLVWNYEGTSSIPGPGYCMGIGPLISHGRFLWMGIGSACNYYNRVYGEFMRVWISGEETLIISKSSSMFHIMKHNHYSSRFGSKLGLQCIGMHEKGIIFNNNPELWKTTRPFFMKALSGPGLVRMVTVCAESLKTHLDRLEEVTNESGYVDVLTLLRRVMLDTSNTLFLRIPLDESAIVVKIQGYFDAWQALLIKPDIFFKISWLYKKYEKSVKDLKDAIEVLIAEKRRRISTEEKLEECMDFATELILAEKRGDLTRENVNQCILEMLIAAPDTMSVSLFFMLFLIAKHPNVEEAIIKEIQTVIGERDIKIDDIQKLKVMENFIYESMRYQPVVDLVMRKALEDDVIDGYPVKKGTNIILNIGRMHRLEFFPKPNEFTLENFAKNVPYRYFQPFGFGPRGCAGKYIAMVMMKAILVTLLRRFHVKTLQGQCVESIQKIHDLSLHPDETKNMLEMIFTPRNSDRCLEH
Procedure: Aromatase inhibition by the compounds of the present invention was determined, e.g., both in vitro (human placental aromatase) and in vivo (ovarian aromatase activity) in rats.
(a) Aromatase inhibition in vitro
(§1) The enzyme system was isolated from the microsomal fraction of human placental tissue according to standard procedure. The assay of Thompson and Siiteri [E. A. Thompson and P. K. Siiteri, J. Biol. Chem. 249, 5364, (1974)] which determines the rate of aromatization as measured by the liberation of ^3 H2 O from 4-[1β,2β-^3 H] androsten-3,17-dione was used. All incubations were carried out in a shaking water bath at 37° C. in air in 10 mM potassium phosphate buffer, pH 7.5, which contained 100 mM KCl, 1 mM EDA and 1 mM dithiothreitol. The experiments were carried out in 1 ml incubation volume containing 50 nM 4-[…], various concentrations of the inhibitors, 100 μM NADPH and 0.05 mg of microsomal proteins. After 15 minutes of incubation the reaction was stopped by the addition of chloroform (5 ml). After centrifugation at 1500×g for 5 minutes, aliquots (0.5 ml) were removed from the water phase for determination of ^3 H2 O formed. The concentration of each compound required to reduce control aromatase by 50% (IC50) was determined by plotting % inhibition versus log of inhibitor concentration. The relative potency of each compound versus 4 OH-A was calculated according to the relation: [formula] (b) Aromatase inhibition in vivo in rats Adult female rats were twice treated subcutaneously with 100 I.U. pregnant mares' serum gonadotropin (PMSG) at 4 days' interval, in order to increase ovarian aromatase activity, according to Brodie's procedure [A. M. H. Brodie et al., Steroids 38, 693, (1981)]. Three days after the second PMSG treatment, groups of 6 animals each were given orally the vehicle (0.5% methocel) or the inhibitor at 30 mg/kg. Animals were killed 24 hours later, microsomes were isolated from ovaries and their aromatase activity determined using a method similar to that described in (a).

[2] = Resistance to hepatic metabolization; conditions: oral route
rat ovarian aromatase = assay: Aromatase inhibition in vivo in rats (ovarian aromatase activity); conditions: for % Aromatase inhibition at 30 mg/kg p.o.: PMSG-treated adult female rats, ovaries taken 24 hours later; for In vivo effectiveness by oral route: 30 mg/kg
Text: The aromatase inhibitors for formula (I) can find also use in the control of reproduction: indeed a decrease in oestrogen levels in vivo results in gonad-inhibiting activity and in insufficient uterine development; aromatase inhibitors may be at the same time implantation inhibitors. Another application of the compounds of the invention is in the treatment of prostatic hypertrophy or hyperplasia, related to an excessive oestrogen production and the shifting of the oestrogen/androgen ratio to higher values. Furthermore, the compounds of the invention, producing decrease in estradiol formation, may be useful for the treatment of male fertility disturbances (Drugs 28: 263, 1984). […] Accordingly, decreased estradiol formation, as can be obtained through administration of the compounds of the invention, leads to an improvement of both sperm count and fertility, in patients with infertility due to oligozoospermia. Aromatase inhibition by the compounds of the present invention was determined, e.g., both in vitro (human placental aromatase) and in vivo (ovarian aromatase activity) in rats.
as §1

[3] = cited from earlier work

C[C@]12CCC(=O)C(N)=C1C=C[C@@H]1[C@@H]2CC[C@]2(C)C(=O)CC[C@@H]12 [FCE 24210, 4-aminoandrosta-4,6-dien-3,17-dione]
pIC50 [1]: 6.83
Relative potency (versus 4-OH-A) [1]: 0.30
Aromatase inhibition in vitro ([1]; in vitro): very potent aromatase inhibitors both in vitro and in vivo
In vitro potency relative to 4-OH-A ([1]; in vitro): about three times lower than that of 4-OH-A
Resistance to hepatic metabolization [2]: unusual resistance to hepatic metabolization
% Aromatase inhibition at 30 mg/kg p.o. (rat ovarian aromatase): 70%
Aromatase inhibition in vivo (rat ovarian aromatase; in vivo): very potent aromatase inhibitors both in vitro and in vivo
In vivo activity compared to androsta-1,4-dien-3,17-dione (rat ovarian aromatase; in vivo): very superior to that of androsta-1,4-dien-3,17-dione
In vivo effectiveness by oral route (rat ovarian aromatase): very effective when administered in vivo by oral route
Potency relative to androsta-1,4-dien-3,17-dione (rat ovarian aromatase; stated as in vivo): about equipotent as androsta-1,4-dien-3,17-dione
Potency relative to Δ^1-testololactone (times more potent) (rat ovarian aromatase; stated as in vivo): about 55 times

C[C@]12C=CC(=O)C=C1CC[C@@H]1[C@@H]2CC[C@]2(C)OC(=O)CC[C@@H]12 [Δ^1 -testololactone, reference compound]
pIC50 [1]: 5.08
Relative potency (versus 4-OH-A) [1]: 0.005
% Aromatase inhibition at 30 mg/kg p.o. (rat ovarian aromatase): inactive

C[C@]12C=CC(=O)C=C1CC[C@@H]1[C@@H]2CC[C@]2(C)C(=O)CC[C@@H]12 [androsta-1,4-dien-3,17-dione, reference compound]
% Aromatase inhibition at 30 mg/kg p.o. (rat ovarian aromatase): 37%

C[C@]12CCC(=O)C(O)=C1CC[C@@H]1[C@@H]2CC[C@]2(C)C(=O)CC[C@@H]12 [Example 4-OH-A, 4-hydroxyandrost-4-en-3,17-dione, reference compound]
pIC50 [1]: 7.36
Conjugation after oral administration [3]: extensively conjugated after oral administration
% Aromatase inhibition at 30 mg/kg p.o. (rat ovarian aromatase): inactive
In vivo effectiveness by oral route (rat ovarian aromatase): ineffective
